From patent US12492193B2, “Pyrazole derivatives for the treatment of cystic fibrosis” (Fondazione Istituto Italiano Di Tecnologia, priority 2017, dated 2025) come the findings set out here.

A value given as a limit tells only on which side of the number the result lay.

This assay has as its target T1, mutant CFTR (Homo sapiens, UniProt P13569, DEL508-508).
T1 construct: expressed in transfected cells
The assay is described as follows: Fluorescence (HS-YFP) assay for CFTR activity, corrector assay. In kind it is cell-based. As to conditions: CFBE41o- and FRT cells with stable expression of mutant CFTR, 24 h compound treatment. Put shortly:
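Corrector activity: 24 h compound treatment of HS-YFP/mutant-CFTR CFBE41o- or FRT cells, followed by 30 min forskolin 20 μM + genistein 50 μM at 37° C. Iodide influx (100 mM final) was tracked as fluorescence quenching, with dF/dt extrapolated by exponential fitting; EC50 values derived.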

T1 sequence (P13569 with tags, fused parts or gaps DEL508-508): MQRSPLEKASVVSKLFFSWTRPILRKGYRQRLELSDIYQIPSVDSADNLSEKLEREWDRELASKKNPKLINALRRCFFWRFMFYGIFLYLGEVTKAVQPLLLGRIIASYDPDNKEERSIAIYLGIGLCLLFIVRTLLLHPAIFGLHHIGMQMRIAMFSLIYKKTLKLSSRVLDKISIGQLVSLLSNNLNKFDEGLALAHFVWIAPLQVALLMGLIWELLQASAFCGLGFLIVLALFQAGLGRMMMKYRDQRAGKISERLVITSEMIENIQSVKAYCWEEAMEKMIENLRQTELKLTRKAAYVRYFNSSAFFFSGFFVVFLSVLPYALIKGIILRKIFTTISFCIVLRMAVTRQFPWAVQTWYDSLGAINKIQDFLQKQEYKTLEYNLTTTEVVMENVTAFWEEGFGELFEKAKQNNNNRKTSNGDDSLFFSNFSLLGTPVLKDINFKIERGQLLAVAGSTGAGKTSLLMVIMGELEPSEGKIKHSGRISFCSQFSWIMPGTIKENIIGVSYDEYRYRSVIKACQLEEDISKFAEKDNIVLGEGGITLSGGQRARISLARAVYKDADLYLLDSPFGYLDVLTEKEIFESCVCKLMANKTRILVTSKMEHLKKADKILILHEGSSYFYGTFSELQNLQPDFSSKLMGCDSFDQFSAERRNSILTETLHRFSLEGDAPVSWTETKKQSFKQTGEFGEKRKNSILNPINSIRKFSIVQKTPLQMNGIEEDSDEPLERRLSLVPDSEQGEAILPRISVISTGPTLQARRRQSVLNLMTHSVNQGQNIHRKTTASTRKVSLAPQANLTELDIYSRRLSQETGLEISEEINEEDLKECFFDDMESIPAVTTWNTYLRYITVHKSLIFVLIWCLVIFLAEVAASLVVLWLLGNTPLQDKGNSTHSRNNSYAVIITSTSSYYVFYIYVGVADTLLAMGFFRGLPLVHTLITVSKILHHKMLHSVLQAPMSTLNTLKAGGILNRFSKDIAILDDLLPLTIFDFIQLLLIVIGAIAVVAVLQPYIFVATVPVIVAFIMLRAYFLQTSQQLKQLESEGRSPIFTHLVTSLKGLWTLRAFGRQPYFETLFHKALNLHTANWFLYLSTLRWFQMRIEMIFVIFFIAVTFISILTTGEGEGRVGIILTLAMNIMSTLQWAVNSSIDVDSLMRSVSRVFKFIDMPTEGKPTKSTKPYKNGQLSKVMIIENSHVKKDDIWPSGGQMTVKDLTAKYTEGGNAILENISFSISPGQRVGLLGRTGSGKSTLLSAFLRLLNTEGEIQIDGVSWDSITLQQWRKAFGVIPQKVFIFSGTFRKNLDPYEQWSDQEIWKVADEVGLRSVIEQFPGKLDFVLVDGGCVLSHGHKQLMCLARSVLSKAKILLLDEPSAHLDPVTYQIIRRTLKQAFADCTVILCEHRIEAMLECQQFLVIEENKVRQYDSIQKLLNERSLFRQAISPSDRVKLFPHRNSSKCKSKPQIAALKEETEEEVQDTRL

Turning to `CN(C(=O)c1cccc(-n2nc(C(F)(F)F)c(Cl)c2OCc2ccccc2)c1)c1ccc2c(c1)OCO2` [compound 134, N-(1,3-Benzodioxol-5-yl)-3-[5-benzyloxy-4-chloro-3-(trifluoromethyl)pyrazol-1-yl]-N-methyl-benzamide], the 50% effective concentration (EC50) is below 1000 nM.

On to `CCN(C(=O)c1cccc(-n2nc(C(F)(F)F)c(Cl)c2C2CC2)c1)c1ccc2nc(C)oc2c1` [compound 135, 3-[4-Chloro-5-cyclopropyl-3-(trifluoromethyl)pyrazol-1-yl]-N-ethyl-N-(2-methyl-1,3-benzoxazol-6-yl)benzamide], for which the concentration giving a half-maximal response (EC50) was below 1000 nM.

With `Cc1nc2ccc(N(C)C(=O)c3cccc(-n4nc(C(F)(F)F)c(Cl)c4C4CC4)c3)cc2o1` [compound 137, 3-[4-Chloro-5-cyclopropyl-3-(trifluoromethyl)pyrazol-1-yl]-N-methyl-N-(2-methyl-3-benzoxazol-6-yl)benzamide], the EC50 was below 1000 nM. The value for `[2H]C([2H])([2H])N(C(=O)c1cccc(-n2nc(C(F)(F)F)c(Cl)c2C2CC2)c1)c1ccc2nc(C)oc2c1` [compound 138, 3-[4-Chloro-5-cyclopropyl-3-(trifluoromethyl)pyrazol-1-yl]-N-(2-methyl-1,3-benzoxazol-6-yl)-N-(trideuteriomethyl)benzamide] was below 1000 nM; that for `Cc1nc2cc(Cl)c(N(C)C(=O)c3cccc(-n4nc(C(F)(F)F)c(Cl)c4C4CC4)c3)cc2o1` [compound 139, 3-[4-Chloro-5-cyclopropyl-3-(trifluoromethyl)pyrazol-1-yl]-N-(5-chloro-2-methyl-1,3-benzoxazol-6-yl)-N-methyl-benzamide] was below 1000 nM.

As to `CCOC(=O)c1cccc(OCc2c(Cl)c(C)nn2-c2cccc(C(=O)N(C)c3ccc4c(c3)OCO4)c2)c1` [compound 140, Ethyl 3-[[2-[3-[1,3-benzodioxol-5-yl(methyl)carbamoyl]phenyl]-4-chloro-5-methyl-pyrazol-3-yl]methoxy]benzoate], the EC50 is below 1000 nM.

Take `CC(C)Oc1c(Cl)c(C(F)(F)F)nn1-c1cccc(C(=O)N(C)c2ccc3c(c2)OCO3)c1` [compound 142, N-(1,3-Benzodioxol-5-yl)-3-[4-chloro-5-isopropoxy-3-(trifluoromethyl)pyrazol-1-yl]-N-methyl-benzamide]: the EC50 is below 1000 nM. Turning to `Cc1nn(-c2cccc(C(=O)N(C)c3ccc4c(c3)OCO4)c2)c(COc2cccc(C(=O)O)c2)c1Cl` [compound 143, 3-[[2-[3-[1,3-Benzodioxol-5-yl(methyl)carbamoyl]phenyl]-4-chloro-5-methyl-pyrazol-3-yl]methoxy]benzoic acid], the half-maximal effective concentration (EC50) was 1000 to 2000 nM. With `CN(C(=O)c1cccc(-n2nc(C(F)(F)F)cc2-c2ccco2)c1)c1ccc2c(c1)OCO2` [compound 147, N-(1,3-Benzodioxol-5-yl)-3-[5-(2-furyl)-3-(trifluoromethyl)pyrazol-1-yl]-N-methyl-benzamide], the 50% effective concentration (EC50) was below 1000 nM.

With `Cc1nc2ccc(N(C)C(=O)c3cccc(-n4nc(C(F)(F)F)c(Cl)c4C)c3)cc2s1` [compound 149, 3-[4-Chloro-5-methyl-3-(trifluoromethyl)pyrazol-1-yl]-N-methyl-N-(2-methyl-1,3-benzothiazol-6-yl)benzamide], the EC50 lay in the range of 1000 to 2000 nM. Take `CCOC(=O)c1ccc(OCc2c(Cl)c(C(F)(F)F)nn2-c2cccc(C(=O)N(C)c3ccc4c(c3)OCO4)c2)cc1` [compound 150, Ethyl 4-[[2-[3-[1,3-benzodioxol-5-yl(methyl)carbamoyl]phenyl]-4-chloro-5-(trifluoromethyl)pyrazol-3-yl]methoxy]benzoate]: the concentration giving a half-maximal response (EC50) was below 1000 nM. The value for `CN(C(=O)c1cccc(-n2nc(C(F)(F)F)c(Cl)c2COc2ccc(C(=O)O)cc2)c1)c1ccc2c(c1)OCO2` [compound 151, 4-[[2-[3-[1,3-benzodioxol-5-yl(methyl)carbamoyl]phenyl]-4-chloro-5-(trifluoromethyl)pyrazol-3-yl]methoxy]benzoic acid] was below 1000 nM; that for `COC(=O)c1ccc(COc2cc(C(F)(F)F)nn2-c2cccc(C(=O)N(C)c3ccc4c(c3)OCO4)c2)cc1` [compound 152, Methyl-4-[[2-[3-[1,3-benzodioxol-5-yl(methyl)carbamoyl]phenyl]-5-(trifluoromethyl)pyrazol-3-yl]oxymethyl]benzoate] was below 1000 nM; that for `Cc1nc2cc(F)c(N(C)C(=O)c3cccc(-n4nc(C(F)(F)F)c(Cl)c4C)c3)cc2o1` [compound 154, 3-[4-Chloro-5-methyl-3-(trifluoromethyl)pyrazol-1-yl]-N-(5-fluoro-2-methyl-1,3-benzoxazol-6-yl)-N-methyl-benzamide] was below 1000 nM. Regarding `COC(=O)c1ccc(COc2c(Cl)c(C(F)(F)F)nn2-c2cccc(C(=O)N(C)c3ccc4c(c3)OCO4)c2)cc1` [compound 155, Methyl 4-[[2-[3-[1,3-benzodioxol-5-yl(methyl)carbamoyl]phenyl]-4-chloro-5-(trifluoromethyl)pyrazol-3-yl]oxymethyl]benzoate], the concentration for a half-maximal effect (EC50) is below 1000 nM. Regarding `COC(=O)c1ccc(COc2c(Cl)c(C(F)(F)F)nn2-c2cccc(C(=O)N(C)c3cc4c(cc3Cl)OCO4)c2)cc1` [compound 156, Methyl 4-[[4-chloro-2-[3-[(6-chloro-1,3-benzodioxol-5-yl)-methyl-carbamoyl]phenyl]-5-(trifluoromethyl)pyrazol-3-yl]oxymethyl]benzoate], the concentration for a half-maximal effect (EC50) was below 1000 nM. For the compound `CN(C(=O)c1cccc(-n2nc(C(F)(F)F)c(Cl)c2OC2CCN(C(=O)OC(C)(C)C)CC2)c1)c1ccc2c(c1)OCO2` [compound 157, Tert-butyl 4-[2-[3-[1,3-benzodioxol-5-yl(methyl)carbamoyl]phenyl]-4-chloro-5-(trifluoromethyl)pyrazol-3-yl]oxypiperidine-1-carboxylate], the concentration for a half-maximal effect (EC50) was below 1000 nM.

On to `CCOc1cc(C(F)(F)F)nn1-c1cccc(C(=O)N(C)c2ccc3c(c2)OCO3)c1` [compound 158, N-(1,3-benzodioxol-5-yl)-3-[5-ethoxy-3-(trifluoromethyl)pyrazol-1-yl]-N-methyl-benzamide], for which the EC50 is below 1000 nM. Take `CN(C(=O)c1cccc(-n2nc(C(F)(F)F)c(Cl)c2OCc2ccc(C(=O)O)cc2)c1)c1ccc2c(c1)OCO2` [compound 159, 4-[[2-[3-[1,3-Benzodioxol-5-yl(methyl)carbamoyl]phenyl]-4-chloro-5-(trifluoromethyl)pyrazol-3-yl]oxymethyl]benzoic acid]: the EC50 is below 1000 nM. On to `Cc1c(Cl)c(C(F)(F)F)nn1-c1cccc(C(=O)N(C)c2cc3c(cc2C=O)OCO3)c1` [compound 161, 3-[4-chloro-5-methyl-3-(trifluoromethyl)pyrazol-1-yl]-N-(6-formyl-1,3-benzodioxol-5-yl)-N-methyl-benzamide], for which the EC50 lay within 1000 to 2000 nM. As for `Cc1c(Cl)c(C(F)(F)F)nn1-c1cccc(C(=O)Nc2cc3c(cc2C#N)OCO3)c1` [compound 162, 3-[4-chloro-5-methyl-3-(trifluoromethyl)pyrazol-1-yl]-N-(6-cyano-1,3-benzodioxol-5-yl)benzamide], the EC50 is above 2000 nM. Consider `Cc1c(Cl)c(C(F)(F)F)nn1-c1cccc(C(=O)N(C)c2cc3c(cc2C#N)OCO3)c1` [compound 163, 3-[4-chloro-5-methyl-3-(trifluoromethyl)pyrazol-1-yl]-N-(6-cyano-1,3-benzodioxol-5-yl)-N-methyl-benzamide], for which the EC50 is below 1000 nM. For the compound `CN(C(=O)c1cccc(-n2nc(C(F)(F)F)cc2-c2ccc(Cl)s2)c1)c1ccc2c(c1)OCO2` [compound 164, N-(1,3-Benzodioxol-5-yl)-3-[5-(5-chloro-2-thienyl)-3-(trifluoromethyl)pyrazol-1-yl]-N-methyl-benzamide], the half-maximal effective concentration (EC50) was below 1000 nM. The value for `O=C(Nc1ccc2c(c1)OCO2)c1cccc(-n2nc(C(F)(F)F)c(Cl)c2C2CC2)c1` [compound 165, N-(1,3-Benzodioxol-5-yl)-3-[4-chloro-5-cyclopropyl-3-(trifluoromethyl)pyrazol-1-yl]benzamide] was above 2000 nM; that for `CN(C(=O)c1cccc(-n2nc(C(F)(F)F)cc2-c2cccs2)c1)c1ccc2c(c1)OCO2` [compound 166, N-(1,3-Benzodioxol-5-yl)-N-methyl-3-[5-(2-thienyl)-3-(trifluoromethyl)pyrazol-1-yl]benzamide] was below 1000 nM; that for `Cc1c(Cl)c(C(F)(F)F)nn1-c1cccc(C(=O)N(C)c2cc3c(cc2CO)OCO3)c1` [compound 168, 3-[4-chloro-5-methyl-3-(trifluoromethyl)pyrazol-1-yl]-N-[6-(hydroxymethyl)-1,3-benzodioxol-5-yl]-N-methyl-benzamide] was 1000 to 2000 nM. `Cc1cc(C(F)(F)F)n(-c2cc(C(=O)N(C)c3ccc4c(c3)OCO4)ccn2)n1` [compound 169, N-(1,3-Benzodioxol-5-yl)-N-methyl-2-[3-methyl-5-(trifluoromethyl)pyrazol-1-yl]pyridine-4-carboxamide]: the 50% effective concentration (EC50) is above 2000 nM.

As for `Cc1nn(-c2cc(C(=O)N(C)c3ccc4c(c3)OCO4)ccn2)c(C(F)(F)F)c1Cl` [compound 170, N-(1,3-Benzodioxol-5-yl)-2-[4-chloro-3-methyl-5-(trifluoromethyl)pyrazol-1-yl]-N-methyl-pyridine-4-carboxamide], the concentration giving a half-maximal response (EC50) was above 2000 nM. For `Cc1c(Cl)c(C(F)(F)F)nn1-c1cc(C(=O)N(C)c2ccc3c(c2)OCO3)ccn1` [compound 171, N-(1,3-Benzodioxol-5-yl)-2-[4-chloro-5-methyl-3-(trifluoromethyl)pyrazol-1-yl]-N-methyl-pyridine-4-carboxamide], the half-maximal effective concentration (EC50) was below 1000 nM.

With `Cc1nc2ccc(NC(=O)c3cccc(-n4nc(C(F)(F)F)c(Cl)c4COc4ccc(C(=O)OC(C)(C)C)cc4)c3)cn2n1` [compound 173, tert-Butyl 4-[[4-chloro-2-[3-[(2-methyl-[1,2,4]triazolo[1,5-a]pyridin-6-yl)carbamoyl]phenyl]-5-(trifluoromethyl)pyrazol-3-yl]methoxy]benzoate], the EC50 is above 2000 nM.

In general, EC50 refers to the concentration at which the effect is half-maximal.
